The experiment relates to PTEN-CaP8 tumors. The experiment can be described thus: FACS of tumor-infiltrating immune cells in PTEN-CaP8 tumors. The format is in vivo, mouse. The following applies: 12 Gy. On the procedure:
FIGS. 6A-J. The small S249/T252 phosphorylation-mimicking polypeptide of RB blocks irradiation-induced PD-L1 expression and inhibits cancer immune evasion. (A, B) PC-3 cells were infected with lentivirus expressing control shRNA or p65-specific or shRNA. 24 hours after puromycin selection, cells were treated with or without gamma irradiation (IR) (12 Gy). 48 hours after IR treatment, cells were harvested for western blotting analysis (A) and RT-qPCR analysis (B). All data were shown as mean values±SD (n=3). * P<0.05, ** P<0.01, *** P<0.001. (C, D) PC-3 cells were treated with without gamma irradiation (12 Gy). Cells were harvested at the indicated time point for western blotting analysis (C) and RT-qPCR analysis (D). All data were shown as mean values±SD (n=3). * P<0.05, ** P<0.01, *** P<0.001. (E) Western blot analysis of WCL and co-IP samples in PC-3 cells 48 hours after treated with or without gamma irradiation (12 Gy). […] (J) The absolute number of CD45^+CD8^+ T cells, CD45^+CD4^+ T cells, and CD11b^+Gr1^+ myeloid cells of implanted PTEN-CaP8 in tumors treated with indicated agents was analyzed by FACS. […]
For flow cytometry analysis of mouse tissue samples, tumors were cut into small pieces and digested with 2 mg/mL collagenase (Sigma) in DMEM for 1 hour at 37° C. […] After incubated with antibody for 30 minutes, cells were washed with PBS and analyzed on a flow cytometer.

Ends that are not written are not given here.

Take “RL-S249D/T252D: S249/T252 phospho-mimicking R-Linker (RL) peptide: fragment of RB-N containing 21 amino acids surrounding S249/T252, expressed SFB-tagged or by lentivirus (NGDPRDPRRGQNRSARIAKQL; also: expressed SFB-tagged (tag left off))”: the “CD11b+Gr1+ myeloid cells in tumors, agent combined with irradiation” value is “sharp decrease”; the “CD45+CD8+ and CD45+CD4+ T cell infiltration in tumors, agent combined with irradiation” value is listed as “dramatic increase”.

The values are drawn from patent publication US20210401931A1, “METHODS AND MATERIALS FOR TREATING CANCER” (Mayo Foundation for Medical Education and Research, priority 2018, published 2021).
